# How the values were obtained:
# [1] = Inhibition of T3SS-mediated LcrQ secretion in Yersinia pseudotuberculosis assessed as yopE promoter-luciferase gene expression by luciferase reporter gene assay
# [2] = Inhibition of phospholipase A2 activity of Pseudomonas aeruginosa N-terminal His6-tagged ExoU expressed in Escherichia coli BL21 cells using arachidonic TEPC as substrate by Ellman's method
# [3] = Inhibition of Escherichia coli T3SS-mediated hemolysis of sheep erythrocytes by microplate reader analysis
# [4] = Inhibition of Escherichia coli T3SS-mediated hemolysis of erythrocytes
# [5] = Inhibition of T3SS-mediated YopE secretion in Yersinia pestis KIM19 by ELISA
# [6] = Inhibition of T3SS-mediated SipB secretion in Salmonella typhimurium; parameters: species or system Salmonella enterica subsp. enterica serovar Typhimurium
# [7] = Inhibition of T3SS-mediated ExoU secretion in Pseudomonas aeruginosa PA103
# [8] = Inhibition of T3SS-mediated carboxypeptidase G2-SopE2-HA secretion in Salmonella typhimurium by fluorescence analysis; parameters: species or system Salmonella enterica subsp. enterica serovar Typhimurium
smiles,measurement,setting,value
O=C(N/N=C/c1ccc(O)cc1O)c1ccc([N+](=O)[O-])cc1,IC50,[1],25 µM
NC(=O)c1cccc2c1-c1ccccc1C2,IC50,[2],7 µM
CC(C)[C@H](NC(=O)[C@H](C)NC(=O)[C@@H](N)[C@@H](N)CC[C@@H](O)[C@@H](O)C(O)[C@@H]1CN(C(N)=O)C(=N)N1)C(=O)O (some centres not stated),IC50,[3],0.02 µM
C/C=C\C=C\[C@@H]1O[C@](O)([C@H](CC)C(=O)NC/C=C/C=C(\C)[C@@H](OC)[C@@H](C)[C@@H]2O[C@H](/C=C/C=C/C=C(\C)C(=O)c3c(O)ccn(C)c3=O)[C@H](O)[C@@H]2O)[C@H](O)[C@H](O)C1(C)C,IC50,[4],1.5 µg/mL
CC(=O)Nc1ccc(N2C(=O)c3ccc(C(=O)OC(C)C(=O)c4c[nH]c5ccccc45)cc3C2=O)cc1 (configuration not stated),IC50,[5],20 µM
O=C(Cc1csc(NC(=O)c2ccccc2)n1)Nn1cnc2scc(-c3ccco3)c2c1=O,IC50,[5],20 µM
O=C(O)C(Cc1ccc(Cl)cc1)Nc1nc(-c2ccc(-c3ccccc3)cc2)nc(N2CCN(c3ccccn3)CC2)n1 (configuration not stated),IC50,[6],20 µM
same,IC50,[7],> 100 µM
O=C(N/N=C/c1cc(Cl)cc(Cl)c1O)c1ccccc1,IC50,[1],25 µM
O=C(N/N=C/c1cc(Br)cc(Br)c1O)c1cccnc1,IC50,[1],25 µM
O=C(N/N=C/c1cc(Br)cc(Br)c1O)c1ccc([N+](=O)[O-])cc1,IC50,[1],15 µM
same,IC50,[8],5.5 µM

# Reference: ChEMBL document CHEMBL3217406, “Small molecules aimed at type III secretion systems to inhibit bacterial virulence” (Medchemcomm, 2013)
